Reference: patent US6083964A, “Optical resolution of racemic aminoalkylpyridine anticonvulsants and (+) aminoalkylpyridine enantiomers as highly potent orally effective anticonvulsant drugs and excitatory amino acid antagonists” (K and K Biosciences, Inc., priority 1999, dated 2000)
Where two headings read alike, the source gives them in different places.

Key:
[1] = Neurological deficit, positional sense test and gait and stance test, rats, p.o.; set-up: species or system rat (Sprague-Dawley); details: rat, in vivo, po
Method: (§1) Neurotoxicity is determined by the rotorod ataxia test in mice and by the positional sense test and gait and stance test in the rat. The following Table 2 presents the results of these anticonvulsant tests with respect to several (+) and (-) AAP enantiomeric compounds derived from optical resolution of racemic AAPs of the present invention. This Table 2 identifies the specific compounds tested by their chemical name and provides the test model, the route of administration, the animal species used, and the anticonvulsant activity and toxicity in terms of ED50 and TD50 values, (the median effective and toxic dose respectively), when intraperitoneally administered to mice, and when orally administered to rats. […] This species will be the subject of the complete anticonvulsant quantification test evaluation as described above, but after oral (gavage) administration of the candidate compound. […] Neurological deficit in rats is examined by the positional sense test and gait and stance test. […] Inability to do so rapidly indicates a neurologic deficit. In the gait and stance test, a neurologic deficit is indicated by a circular or a zigzag gait, ataxia, abnormal spread of the legs, abnormal body posture, tremor, hyperactivity, lack of exploratory behavior, somnolence, stupor, or catalepsy.

[2] = test system: maximal electroshock seizure (MES) in mice; test: Maximal electroshock seizure (MES) test, mice, i.p.; type: in vivo, mouse (male Carworth Farms #1); details: for P.I. (protective index, TD50/ED50): MES; for ED50: MES test
Description: The (+) AAP enantiomers obtained by optical resolution of racemic AAPs and the resulting highly orally effective anticonvulsant compositions of this invention are useful in the treatment of convulsive disorders. […] A series of (+) AAP enantiomers and (-) AAP enantiomers of this invention has been evaluated for anticonvulsant activity by the intraperitoneal (i.p.) and by the oral (p.o.) route using two standard seizure models in the mouse and in the rat, the maximal electroshock seizure (MES) test and the subcutaneous pentylenetetrazol (Metrazole) seizure threshold (scMet) test. […] The following Table 2 presents the results of these anticonvulsant tests with respect to several (+) and (-) AAP enantiomeric compounds derived from optical resolution of racemic AAPs of the present invention. This Table 2 identifies the specific compounds tested by their chemical name and provides the test model, the route of administration, the animal species used, and the anticonvulsant activity and toxicity in terms of ED50 and TD50 values, (the median effective and toxic dose respectively), when intraperitoneally administered to mice, and when orally administered to rats. In mice, i.p.: All compounds are emulsified in 0.5% methylcellulose. The solvent has been tested for anticonvulsant and toxic effects and found to introduce no significant bias into the testing of anticonvulsant activity. The compounds are administered intraperitoneally in a volume of 0.01 ml/gm to male Carworth Farms #1 mice weighing about 20 gm. All compounds are tested at least at three dose levels (30, 100 and 300 mg/kg) at 30 minutes and 4 hours after their administration. The Maximal Electroshock Seizure Test (MES): Maximal electroshock seizures are elicited with a 60 Hz alternating current of 50 mA intensity in mice and about 150 mA intensity in rats (5-7 times that necessary to elicit minimal electroshock seizures), delivered for 0.2 sec via corneal electrodes. A drop of 0.9% saline is instilled in the eye prior to application of the electrodes in order to […]. Abolition of the hind limb tonic extension component of the seizure is defined as protection and results are expressed as number of animals protected/number of animals tested. The Subcutaneous Pentylenetetrazol (Metrazole) Seizure Threshold Test (scMet): A 0.5% solution of 85 mg/kg of pentylenetetrazol is administered subcutaneously in the posterior midline 30 minutes or 4 hours after drug administration to the animal. […] Anticonvulsant Quantification in Mice i.p.: The ED50 values are determined in the MES, scMet and rotorod ataxia test. To determine the ED50 values, five logarithmically spaced doses of the test compound are administered to animals (male Carworth Farms #1 mice) in groups of eight, to cover 0-100% protection, and the dose required to protect 50% of the animals (ED50) together with its 95% confidence limits, is determined graphically.

[3] = Neurotoxicity, rotorod ataxia test, mice, i.p.; set-up: species or system mouse (male Carworth Farms #1); details: mouse, in vivo, ip, TD50
Method: (§2) Neurotoxicity is determined by the rotorod ataxia test in mice and by the positional sense test and gait and stance test in the rat. The following Table 2 presents the results of these anticonvulsant tests with respect to several (+) and (-) AAP enantiomeric compounds derived from optical resolution of racemic AAPs of the present invention. This Table 2 identifies the specific compounds tested by their chemical name and provides the test model, the route of administration, the animal species used, and the anticonvulsant activity and toxicity in terms of ED50 and TD50 values, (the median effective and toxic dose respectively), when intraperitoneally administered to mice, and when orally administered to rats. In mice, i.p.: All compounds are emulsified in 0.5% methylcellulose. The solvent has been tested for anticonvulsant and toxic effects and found to introduce no significant bias into the testing of anticonvulsant activity. The compounds are administered intraperitoneally in a volume of 0.01 ml/gm to male Carworth Farms #1 mice weighing about 20 gm. All compounds are tested at least at three dose levels (30, 100 and 300 mg/kg) at 30 minutes and 4 hours after their administration. Neurotoxicity is evaluated in mice by the rotorod ataxia test. The animal is placed on a wooden rod of 1 and 1/8 diameter rotating at 6 rpm. Normal mice can remain on a rod rotating at this speed indefinitely. […] Anticonvulsant Quantification in Mice i.p.: The ED50 values are determined in the MES, scMet and rotorod ataxia test. To determine the ED50 values, five logarithmically spaced doses of the test compound are administered to animals (male Carworth Farms #1 mice) in groups of eight, to cover 0-100% protection, and the dose required to protect 50% of the animals (ED50) together with its 95% confidence limits, is determined graphically.

hippocampal kindled rats = test: Toxicity in hippocampal kindled rats, i.p.; type: in vivo; details: 100 mg/kg i.p., 45 min
Method: The (+) AAP enantiomer, compound 1 in Table 1, was tested in the hippocampal kindled rat, by the i.p. route. […]

[4] = test system: neurological deficit in rats; test: Neurological deficit, positional sense test and gait and stance test, rats, p.o.; set-up: species or system rat (Sprague-Dawley); details: rat, in vivo, po
Method: as §1

[5] = test system: neurotoxicity (rotorod ataxia) in mice; test: Neurotoxicity, rotorod ataxia test, mice, i.p.; set-up: species or system mouse (male Carworth Farms #1); details: mouse, in vivo, ip
Method: as §2

Row | Compound | TD50 [1] | P.I. (protective index, TD50/ED50) ([2]; listed as (1) (+) Enantiomer) | ED50 ([2]; Mus musculus, ip, read-out: ED50) | TD50 [3] | toxic (number of animals) (hippocampal kindled rats) | TD50 [4] | ED50 ([2]; listed as (1) (-) Enantiomer) | P.I. (protective index, TD50/ED50) ([2]; listed as (1) (-) Enantiomer) | TD50 [5]
1 | CC(Nc1ccc(Cl)cc1)c1ccncc1 (single isomer, unassigned; (+)) [Compound 1, (+) N-(4-Chlorophenyl)-1-(4-pyridyl)ethylamine] | > 500 mg/kg | 4.2 | 35.9 mg/kg | 149 mg/kg | 2/7 | – | – | – | –
2 | CC(Nc1ccc(Cl)cc1)c1ccncc1 (single isomer, unassigned; (-)) [Compound 2, (-) N-(4-Chlorophenyl)-1-(4-pyridyl)ethylamine] | – | – | – | – | – | > 500.0 mg/kg | 60.3 mg/kg | 3.6 | 219.4 mg/kg
